Measurements: ChEMBL document CHEMBL3507680, “University of Dundee, Gates Library screen for HepG2 cell viability”

Assay: Human HepG2 cell viability assay in 384 well format
Format: toxicity, cell-based
Set-up: dose 125 nL, time 70.5 hour; concentration not given beside the values
Conditions: HepG2 cells, read-out: Inhibition

SMILES | cytotoxicity at 70.5 h [%]
CS(=O)(=O)N1CCc2sc(C(=O)NCCc3ccccn3)cc21 | -10.9
COCCN1C[C@H](OCc2csc(C)n2)[C@H]2COC[C@H]21 | -9.78
NCc1ccc(OC(F)F)cc1OC(F)F | -15.9
O=C(c1csc(-c2ccccn2)n1)N1CCCC1Cn1cccn1 (stereo not given) | -2.56
NC(=O)CN1C(=O)CO[C@H]2CN(Cc3ccc(F)c(F)c3)C[C@H]21 | -3.9
CCc1oc(C(=O)NCCc2cc(O)nc(C)n2)cc1CN1CCCC1 | -6.98
CN1C[C@@H](C(=O)NC2CCCC2)[C@@]2(COc3ccc(F)cc3C2=O)C1 | -6.62
Cc1ccc(C(=O)N2CCn3cc(CN(C)Cc4ccco4)nc3C2)o1 | 8.16
CNc1ncc(C(=O)N2CCOC(C(=O)NC3CCCC3)C2)cn1 (stereo not given) | -9.73
CN(Cc1ccsc1)C(=O)c1n[nH]c(N)c1-c1ccccc1 | -1.37
CCC(Nc1cccc(OC)c1)C(=O)N(CCO)Cc1nccs1 (stereo not given) | -3.06
N#Cc1ccc(C(=O)N2C[C@@H](CN3CCCC3)C[C@H](CO)C2)cc1 | -2.46
Cc1cnn(CCNCc2ccccc2OCc2ccncc2)c1 | 3.09
CC(C)(C)C(=O)NCCc1ccn(-c2ccccc2)n1 | -17.1
NCCc1nc(N[C@@H](CO)c2ccccc2)c2ccccc2n1 | 7.85
COCC(=O)N1CC[C@@H]2O[C@@H](COCc3csc(C)n3)CC[C@@H]21 | 4.53
Cc1cc(CN(C)c2nc(-c3ccccn3)nc3c2CCNCC3)n[nH]1 | -11.1
CCCc1nc(C)c(CNc2nc(C)nc3oc(C)nc23)s1 | -8.14
COCCC(=O)N(Cc1ccccn1)Cc1ccccc1C | 7.25
CCS(=O)(=O)Nc1ccn(Cc2cccc(F)c2)n1 | -11.5
COC(=O)[C@H]1C[C@@H](O)CCN1S(=O)(=O)c1cc(Cl)ccc1OC | -11.2
Cc1ccc(C(=O)N2CCN3C[C@H](Oc4cccnc4)C[C@H]3C2)cn1 | 4.6
CN1CC(=O)N(c2cnn(C)c2)CC12CCN(Cc1cccnc1)C2 (stereo not given) | 0.303
COc1ccc2cc(C(=O)N3CC[C@H](CO)[C@H](O)C3)n(C)c2c1 | 2.19
Cn1cc(CCNC(=O)C2(c3cccc(Cl)c3)CC2)cn1 | -18.4
Cc1ccc(NC(C)(C)c2nnnn2-c2ccc(Cl)cc2)c(C)c1 | 0.988
CC(C)c1nn(C)c(Cl)c1CNCC(=O)N1CCN(C)CC1 | -4.93

SMILES | cytotoxicity at 70.5 h [%]
Cn1nc2c(c1NC(=O)c1ccc(C3CCCN3C3CCC3)s1)CCC2 (stereo not given) | -6.85
Cc1oc(NC(=O)C(C)N2CCN(C(=O)C3CC3)CC2)c(C#N)c1C (stereo not given) | -1.91
Cc1ccc(C(=O)N2CC[C@]3(C[C@@H](OCc4ccccn4)CO3)C2)nc1 | 12.9
O=C(c1ccc2nccnc2c1)N1CCN(CCO)[C@@H]2CS(=O)(=O)C[C@@H]21 | -9.05
CCN(CC)CC1CN(CCc2ccccc2)Cc2nccn2C1 (stereo not given) | -4.11
Cc1cc(C)n(-c2cncc(NCCC(=O)NC(C)C)n2)n1 | -10.2
CC(=O)Nc1nc(CN2CCOC(Cn3cncn3)C2)cs1 (stereo not given) | -5.38
CCn1ncc2c1CN(CCc1cccc(Cl)c1)CC2COC (stereo not given) | -8.31
O=S(=O)(C1CC1)N1CCc2onc(COc3ccccn3)c2C1 | 34.6
CC(C)N(Cc1cccnc1)C(=O)CSc1ccc(C#N)cc1 | -8.92
Cc1noc(CN(CCc2ccco2)Cc2cccc(C#N)c2)n1 | 2.9
O=C(Nc1nnn[nH]1)c1ccc(-n2cccc2)c(F)c1 | -9.42
Cc1csc(CN2C[C@H](NC(=O)C3CCOCC3)[C@@H](C(C)C)C2)n1 | -10.9
c1ccc(-c2nccc(CNCC3CCCN3c3cccnn3)n2)cc1 (stereo not given) | 39.7
CN(C(=O)CNCCn1cccn1)C1(C#N)CCCCC1 | -3.85
Cc1nc(CN2CCCN(c3nccs3)CC2)no1 | 10.6
Cc1noc(C)c1CNC(=O)Nc1ccc(N2CCOC2=O)cc1 | -17.5
O=C(c1cncs1)N1CCOCC(Cc2ccccn2)C1 (stereo not given) | -2.59
COCCN(Cc1ccccc1)Cc1nc(-c2ccsc2)no1 | -3.79
O=C(O)c1cccc(C2CCCN(S(=O)(=O)C3CC3)C2)c1 (stereo not given) | -10.8
CC(C)C(=O)N1CCC(c2nc3ccccn3c2NC(C)(C)C)CC1 | -10.5
CC(C)C1CN(C(=O)c2ccc(N3CCCC3)nc2)CCS1 (stereo not given) | -8.6
OC1CCN(Cc2c(-c3ccco3)[nH]c3ncccc23)CC1 | -5.94
Cn1cc(CNC2CC3(CCN(CC4CC4)CC3)c3ccccc32)cn1 (stereo not given) | -2.11
Cc1c(CC(=O)N2CCSCC2)nnn1-c1cccc(Cl)c1 | 23.4
Cc1nnc([C@@]23CCO[C@@H]2CCN(Cc2ccc4c(c2)OCO4)C3)o1 | -2.95
CCn1nc(C(C)C)cc1C(=O)NCc1nc2ccc(OC)cc2[nH]1 | -14.7

SMILES | cytotoxicity at 70.5 h [%]
O=C(c1cnccn1)N1CCCC2(CCN(Cc3ccsc3)C2)C1 (stereo not given) | -5.33
COc1ccc(C2Nc3ccccc3C3=NCCCN32)cc1OC (stereo not given) | 7.54
COCCN1C[C@H]2CC[C@@H]1CN(C(=O)CCc1n[nH]c(C)c1C)C2 | 6.62
CC(NC(=O)N1CCNC(=O)CC1)c1ccc(OC(F)F)cc1 (stereo not given) | -8.12
CC(c1nc(C2CC2)no1)N1CCN(Cc2ccsc2)CC1 (stereo not given) | -12.3
COc1ccc(C)cc1-n1cnnc1C1CCCN(C)C1 (stereo not given) | 9.2
COCCNC(=O)[C@H]1CN2CCC1C[C@@H]2Cn1cc(C(C)(C)C)nn1 (stereo not given in full) | -0.883
CCc1cc(=O)n(CC(=O)NCC2CCCO2)c(-c2cccc(F)c2)n1 (stereo not given) | 2.39
Cc1nc(N2CCCCC2)ncc1C(=O)N1CC(C)(C)[C@@](C)(O)C1 | -6.11
CC(C)Cn1ccnc1CNC(=O)N1CCCC1CN1CCOCC1 (stereo not given) | -4.49
NC(=O)c1cccc(CCNC(=O)N2CCCC2)c1 | -8
Cc1cccnc1CNCC1(O)CCCN(CC2CCC2)C1=O (stereo not given) | 2.29
Cc1cc(CS(=O)(=O)NCC2CCCCC2)on1 | 0.508
CCc1nnc(SCc2nonc2C)n1C1CC1 | -10.7
Cc1cccc(NC2CCN(C(=O)Nc3ccc(F)c(F)c3)CC2)n1 | -4.64
O=C(c1cccc(CNC/C=C/c2ccccc2)c1)N1CCCC1 | 4.26
Cc1cc(C(=O)N2CCC3(CCNCC3)CC2)c2cccc(C)c2n1 | 43.8
Cc1csc(CNC(=O)Nc2ccc3c(c2)OCO3)n1 | -7.99
CC[C@@H]1N(Cc2cc(OC)cc(OC)c2)CCC[C@]12CCC(=O)N2C | -16.6
Cn1nc(CC(C)(C)C)cc1NC(=O)c1ccc(CNC(N)=O)cc1 | -7.81
CC(C)N(C)Cc1cnc2n1CCN(C(=O)Cc1cccs1)C2C (stereo not given) | -6.21
CCn1nnnc1-c1cccc(NC(=O)CCc2cnn(C)c2)c1 | -2.12
CCn1cc(CN2CCC(C3CCN(C)CC3)CC2)cc1C#N | -1.33
CC(NC(=O)CSCC#N)c1ccc(Cl)cc1 (stereo not given) | -4.42
O=C(NCc1ccccn1)c1nnn(-c2ccc(Br)cc2)n1 | 10.5
CCn1nc(C)c(CNC(=O)NCC(C)(O)c2ccc(C)o2)c1C (stereo not given) | -13.6
